Measurements from patent publication US20250213572A1, “TYK2 INHIBITORS AND USES THEREOF” (Takeda Pharmaceutical Company Limited, priority 2022, published 2025).
In brackets after ≈: the same amount, converted by molar mass. Entries after “also recorded” stand apart in the source; their conditions may differ.

Key:
[1] = Phase 2b study in plaque psoriasis (Example 4): safety
panel of 631 kinases = test: Binding screen against a panel of 631 kinases; details: 1 micromolar concentration
[2] = human, in vivo
TYK2 = test: rWB IFNα IP-10 (rat whole-blood TYK2-dependent IFNα-induced IP10 assay); assay type: cell-based
clinical [3] = details: human, in vivo
CYP450 1A2 = CYP450 1A2 (Homo sapiens, UniProt P05177); test: CYP450 inhibition, 1A2; assay type: in vitro ADME
hepatocytes [4] = test: In vitro metabolism in hepatocytes and elimination route; assay type: in vitro ADME
[5] = human, in vivo; remark: listed apart in the source
hepatocytes [6] = test: Hepatocyte predicted clearance (Hep Clpred), rat; assay type: in vitro ADME; details: in vitro
[7] = Three placebo-controlled Phase I studies, pooled summary; details: across the 3 Phase I studies
PXR = PXR (Homo sapiens, UniProt O75469); test: PXR activation; assay type: cell-based; details: at 30 μM
[8] = system: 87 target panel of enzymes, ion channels, receptors; test: 87 target panel of enzymes, ion channels, receptors; assay type: biochemical; details: @ 10,000 nM
Kinetic solubility = assay type: physicochemical; details: kinetic from dmso stock
clinical [9] = details: human, plasma, oral
[10] = In vivo pharmacokinetics, mouse; details: plasma
[11] = assay type: in vivo, human
From the text: The observed accumulation ratio, between Day 1 and Day 28, in this study was consistent with the value obtained in the previous study in healthy volunteers.

hepatocytes [12] = test: Hepatocyte predicted clearance (Hep Clpred), dog; assay type: in vitro ADME; details: in vitro
[13] = system: adjuvant-induced arthritis; test: Rat adjuvant-induced arthritis (AIA) efficacy model; details: administered daily for 20 days

CYP450 1A2, sequence (P05177 whole entry): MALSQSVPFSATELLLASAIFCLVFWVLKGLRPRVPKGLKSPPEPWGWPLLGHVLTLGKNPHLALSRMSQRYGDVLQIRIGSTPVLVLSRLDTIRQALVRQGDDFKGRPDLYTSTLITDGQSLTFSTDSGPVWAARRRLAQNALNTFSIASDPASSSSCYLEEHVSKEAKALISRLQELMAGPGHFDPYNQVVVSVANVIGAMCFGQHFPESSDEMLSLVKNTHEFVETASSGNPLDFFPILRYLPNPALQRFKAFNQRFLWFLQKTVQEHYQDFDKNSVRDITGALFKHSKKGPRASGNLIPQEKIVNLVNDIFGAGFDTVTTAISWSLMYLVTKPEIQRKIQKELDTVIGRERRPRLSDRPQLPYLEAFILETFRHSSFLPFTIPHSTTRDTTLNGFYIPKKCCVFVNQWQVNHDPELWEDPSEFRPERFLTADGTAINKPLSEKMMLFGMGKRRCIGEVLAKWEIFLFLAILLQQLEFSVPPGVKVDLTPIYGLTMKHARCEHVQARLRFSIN
PXR, sequence (O75469 whole entry): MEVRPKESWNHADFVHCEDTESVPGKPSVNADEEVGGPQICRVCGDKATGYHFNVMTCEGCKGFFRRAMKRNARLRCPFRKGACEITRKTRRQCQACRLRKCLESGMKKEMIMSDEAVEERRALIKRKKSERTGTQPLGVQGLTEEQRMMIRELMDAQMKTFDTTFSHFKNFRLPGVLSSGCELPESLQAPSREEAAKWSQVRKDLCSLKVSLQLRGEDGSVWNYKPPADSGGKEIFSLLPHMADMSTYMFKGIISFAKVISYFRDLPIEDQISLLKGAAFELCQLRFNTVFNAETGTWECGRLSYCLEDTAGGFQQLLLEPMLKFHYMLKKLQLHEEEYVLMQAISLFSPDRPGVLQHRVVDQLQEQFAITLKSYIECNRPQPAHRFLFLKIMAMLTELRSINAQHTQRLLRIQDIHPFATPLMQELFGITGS

SMILES: CNc1cc(Nc2cccn(-c3ccccn3)c2=O)nc2c(C(=O)N[C@@H]3CC[C@H]3OC)cnn12 [Compound 1, N-((1R,2R)-2-methoxycyclobutyl)-7-(methylamino)-5-((2-oxo-2H-[1,2′-bipyridin]-3-yl)amino)pyrazolo[1,5-a]pyrimidine-3-carboxamide]
- kind of adverse event leading to drug discontinuation ([1]; 2 mg): Lymphocyte count decreased (2 mg)
- AEs ([1]; 2 mg QD): 31 (62) Number of patients (percent)
- AEs leading to discontinuation ([1]; 2 mg QD): 1 (2) Number of patients (percent)
- ALT elevation, CTCAE Grade ≥3 ([1]; 2 mg QD): 0 Number of patients (percent)
- AST elevation, CTCAE Grade ≥3 ([1]; 2 mg QD): 0 Number of patients (percent)
- Acne ([1]; 2 mg QD): 0 Number of patients (percent)
- Acneiform dermatitis ([1]; 2 mg QD): 0 Number of patients (percent)
- Anemia, CTCAE Grade ≥3 ([1]; 2 mg QD): 0 Number of patients (percent)
- COVID-19 ([1]; 2 mg QD): 6 (12) Number of patients (percent)
- CPK elevation, CTCAE Grade ≥3 ([1]; 2 mg QD): 0 Number of patients (percent)
- Cholesterol elevation, Wk 12, CTCAE Grade ≥3 ([1]; 2 mg QD): 0 Number of patients (percent)
- Creatinine elevation, CTCAE Grade ≥3 ([1]; 2 mg QD): 0 Number of patients (percent)
- Deaths ([1]; 2 mg QD): 0 Number of patients (percent)
- Diarrhea ([1]; 2 mg QD): 3 (6) Number of patients (percent)
- Lymphopenia, CTCAE Grade ≥3 ([1]; 2 mg QD): 1 (2) Number of patients (percent)
- Serious AEs ([1]; 2 mg QD): 0 Number of patients (percent)
- Thrombocytopenia, CTCAE Grade ≥3 ([1]; 2 mg QD): 0 Number of patients (percent)
- Triglyceride elevation, Wk 12, CTCAE Grade ≥3 ([1]; 2 mg QD): 1 (2) Number of patients (percent)
- Worsening of proteinuria, CTCAE Grade ≥3 ([1]; 2 mg QD): 0 Number of patients (percent)
- kind of adverse event leading to drug discontinuation ([1]; 5 mg): Tachycardia and syncope (5 mg)
- AEs ([1]; 5 mg QD): 28 (54) Number of patients (percent)
- AEs leading to discontinuation ([1]; 5 mg QD): 1 (2) Number of patients (percent)
- ALT elevation, CTCAE Grade ≥3 ([1]; 5 mg QD): 0 Number of patients (percent)
- AST elevation, CTCAE Grade ≥3 ([1]; 5 mg QD): 0 Number of patients (percent)
- Acne ([1]; 5 mg QD): 1 (2) Number of patients (percent)
- Acneiform dermatitis ([1]; 5 mg QD): 1 (2) Number of patients (percent)
- Anemia, CTCAE Grade ≥3 ([1]; 5 mg QD): 0 Number of patients (percent)
- COVID-19 ([1]; 5 mg QD): 4 (8) Number of patients (percent)
- CPK elevation, CTCAE Grade ≥3 ([1]; 5 mg QD): 0 Number of patients (percent)
- Cholesterol elevation, Wk 12, CTCAE Grade ≥3 ([1]; 5 mg QD): 0 Number of patients (percent)
- Creatinine elevation, CTCAE Grade ≥3 ([1]; 5 mg QD): 0 Number of patients (percent)
- Deaths ([1]; 5 mg QD): 0 Number of patients (percent)
- Diarrhea ([1]; 5 mg QD): 1 (2) Number of patients (percent)
- Lymphopenia, CTCAE Grade ≥3 ([1]; 5 mg QD): 0 Number of patients (percent)
- Serious AEs ([1]; 5 mg QD): 0 Number of patients (percent)
- Thrombocytopenia, CTCAE Grade ≥3 ([1]; 5 mg QD): 0 Number of patients (percent)
- Triglyceride elevation, Wk 12, CTCAE Grade ≥3 ([1]; 5 mg QD): 0 Number of patients (percent)
- Worsening of proteinuria, CTCAE Grade ≥3 ([1]; 5 mg QD): 0 Number of patients (percent)
- kind of adverse event leading to drug discontinuation ([1]; 15 mg): Pericardial effusion and pleural effusion (15 mg)
- AEs ([1]; 15 mg QD): 28 (53) Number of patients (percent)
- AEs leading to discontinuation ([1]; 15 mg QD): 1 (2) Number of patients (percent)
- ALT elevation, CTCAE Grade ≥3 ([1]; 15 mg QD): 0 Number of patients (percent)
- AST elevation, CTCAE Grade ≥3 ([1]; 15 mg QD): 0 Number of patients (percent)
- Acne ([1]; 15 mg QD): 3 (6) Number of patients (percent)
- Acneiform dermatitis ([1]; 15 mg QD): 1 (2) Number of patients (percent)
- Anemia, CTCAE Grade ≥3 ([1]; 15 mg QD): 0 Number of patients (percent)
- COVID-19 ([1]; 15 mg QD): 6 (11) Number of patients (percent)
- CPK elevation, CTCAE Grade ≥3 ([1]; 15 mg QD): 1 (2) Number of patients (percent)
- Cholesterol elevation, Wk 12, CTCAE Grade ≥3 ([1]; 15 mg QD): 0 Number of patients (percent)
- Creatinine elevation, CTCAE Grade ≥3 ([1]; 15 mg QD): 0 Number of patients (percent)
- Deaths ([1]; 15 mg QD): 0 Number of patients (percent)
- Diarrhea ([1]; 15 mg QD): 1 (2) Number of patients (percent)
- Lymphopenia, CTCAE Grade ≥3 ([1]; 15 mg QD): 0 Number of patients (percent)
- Serious AEs ([1]; 15 mg QD): 1 (2) Number of patients (percent)
- Thrombocytopenia, CTCAE Grade ≥3 ([1]; 15 mg QD): 0 Number of patients (percent)
- Triglyceride elevation, Wk 12, CTCAE Grade ≥3 ([1]; 15 mg QD): 1 (2) Number of patients (percent)
- Worsening of proteinuria, CTCAE Grade ≥3 ([1]; 15 mg QD): 0 Number of patients (percent)
- kind of adverse event leading to drug discontinuation ([1]; 30 mg): CPK increased (30 mg); also recorded: One additional subject (30 mg) permanently discontinued study drug due to an AE of hypertensive urgency, but remained in study
- AEs ([1]; 30 mg QD): 31 (60) Number of patients (percent)
- AEs leading to discontinuation ([1]; 30 mg QD): 2 (4) Number of patients (percent)
- ALT elevation, CTCAE Grade ≥3 ([1]; 30 mg QD): 0 Number of patients (percent)
- AST elevation, CTCAE Grade ≥3 ([1]; 30 mg QD): 0 Number of patients (percent)
- Acne ([1]; 30 mg QD): 2 (4) Number of patients (percent)
- Acneiform dermatitis ([1]; 30 mg QD): 3 (6) Number of patients (percent)
- Anemia, CTCAE Grade ≥3 ([1]; 30 mg QD): 0 Number of patients (percent)
- COVID-19 ([1]; 30 mg QD): 7 (14) Number of patients (percent)
- CPK elevation, CTCAE Grade ≥3 ([1]; 30 mg QD): 1 (2) Number of patients (percent)
- Cholesterol elevation, Wk 12, CTCAE Grade ≥3 ([1]; 30 mg QD): 0 Number of patients (percent)
- Creatinine elevation, CTCAE Grade ≥3 ([1]; 30 mg QD): 0 Number of patients (percent)
- Deaths ([1]; 30 mg QD): 0 Number of patients (percent)
- Diarrhea ([1]; 30 mg QD): 0 Number of patients (percent)
- Lymphopenia, CTCAE Grade ≥3 ([1]; 30 mg QD): 0 Number of patients (percent)
- Serious AEs ([1]; 30 mg QD): 0 Number of patients (percent)
- Thrombocytopenia, CTCAE Grade ≥3 ([1]; 30 mg QD): 0 Number of patients (percent)
- Triglyceride elevation, Wk 12, CTCAE Grade ≥3 ([1]; 30 mg QD): 1 (2) Number of patients (percent)
- Worsening of proteinuria, CTCAE Grade ≥3 ([1]; 30 mg QD): 0 Number of patients (percent)
- CPK ([1]; FIG. 17E): shows some variability at 15 mg and 30 mg with large error bars
- Triglyceride elevation ([1]; FIG. 19B): minimal
- hematological parameters, mean lab values and changes from baseline ([1]; FIGS. 17A-17E, weeks 0-16): do not reveal adverse trends in cell counts
- hepatic and renal parameters, mean lab values and changes from baseline ([1]; FIGS. 18A-18E): do not reveal adverse trends for liver enzymes, creatinine or eGFR
- lipid parameters, mean lab values and changes from baseline ([1]; FIGS. 19A-19E): do not reveal adverse trends for cholesterol, HDL, or LDL
- inhibition of PIP51K1C (panel of 631 kinases): 54 % inhibition
- kinases inhibited with >50% inhibition in panel of 631 kinases (panel of 631 kinases): Only one kinase was inhibited with >50% inhibition
- AUC % extrapolated [2]: 9.9-30.9%
- fraction of the dose excreted in urine (FE %) [2]: 0.37-1.89 % of dose
- CL renal (clinical [3]): 1 to 5 mL/min
- Tmax (clinical [3]): 3 to 5 h
- AUC(0-inf) (clinical [3]; 75 mg): 589 to 8370 ng·h/mL
- Cmax (clinical [3]; 75 mg): 21.6 to 237 ng/mL
- AUC(0-inf) (clinical [3]; 100 mg): 10700 ng·h/mL
- AUC(0-inf) (clinical [3]; 150 mg): 12200 ng·h/mL
- Cmax (clinical [3]; 200 mg): 232 to 250 ng/mL
- IC50 (CYP450 1A2): > 30 µM
- route of elimination (hepatocytes [4]): primarily via oxidative metabolism by multiple CYP450 enzymes followed by conjugation
- overall metabolism (hepatocytes [4]; hepatocytes): low overall metabolism
- overall safety and tolerability [5]: generally safe and well tolerated
- Hep Clpred (hepatocytes [6]): 30 mL/min/kg
- serious adverse events (SAEs) or deaths [7]: No serious adverse events (SAEs) or deaths were observed
- PXR activation (PXR): 26 % of rifampicin control
- inhibition for 85 targets of the 87 target panel [8]: <50% inhibition for 85
- inhibition of LCK [8]: LCK (54%) and the adenosine
- inhibition of the adenosine transporter [8]: transporter (53%)
- solubility kinetic (Kinetic solubility): 32 µM (≈ 14.7 µg/mL)
- Tmax (clinical [9]): 3 to 6 h
- half-life (clinical [9]): 17 to 37 h
- half-life ([10]; mouse): 2 h
- clearance ([10]; 1 mg/kg, Mouse, 1 mpk IV dose, read-out: Clp, obs): 16 mL/min/kg
- Vd ([10]; 1 mg/kg, Mouse, 1 mpk IV dose, read-out: Vss): 1.3 L/kg
- Tmax ([10]; 30 mg/kg, Mouse, PO 30 mpk): 0.4 h
- bioavailability ([10]; 30 mg/kg, Mouse, PO 30 mpk): 81%
- median time of mean peak plasma concentrations ([11]; Cohorts 1-3, 5 to 30 mg once daily): 3 to 4 h
- inter-subject variability, CV for AUC0-tau ([11]; human, in vivo): 47-269%
- inter-subject variability, CV for Cmax ([11]; human, in vivo): 55-111%
- Hep Clpred (hepatocytes [12]): 15 mL/min/kg
- disease activity in rat AIA model [13]: suppressed disease activity in a dose-related manner
